Laboratory results as given in ChEMBL document CHEMBL4814073, “Ring-opening of five-membered heterocycles conjugated 4-isopropylresorcinol scaffold-based benzamides as HSP90 inhibitors suppressing tumor growth in vitro and in vivo” (Eur J Med Chem, 2021).
Calls of active or inactive are those of the source. The rule behind the calls is not given here.

What was measured:
Cytochrome P450 2C8 = biological target: T1, Cytochrome P450 2C8 (Homo sapiens, UniProt P10632); assay: Inhibition of CYP2C8 in human liver microsomes using amodiaquine as substrate by LC-MS/MS analysis; type: ADME
T1 sequence (P10632 whole entry): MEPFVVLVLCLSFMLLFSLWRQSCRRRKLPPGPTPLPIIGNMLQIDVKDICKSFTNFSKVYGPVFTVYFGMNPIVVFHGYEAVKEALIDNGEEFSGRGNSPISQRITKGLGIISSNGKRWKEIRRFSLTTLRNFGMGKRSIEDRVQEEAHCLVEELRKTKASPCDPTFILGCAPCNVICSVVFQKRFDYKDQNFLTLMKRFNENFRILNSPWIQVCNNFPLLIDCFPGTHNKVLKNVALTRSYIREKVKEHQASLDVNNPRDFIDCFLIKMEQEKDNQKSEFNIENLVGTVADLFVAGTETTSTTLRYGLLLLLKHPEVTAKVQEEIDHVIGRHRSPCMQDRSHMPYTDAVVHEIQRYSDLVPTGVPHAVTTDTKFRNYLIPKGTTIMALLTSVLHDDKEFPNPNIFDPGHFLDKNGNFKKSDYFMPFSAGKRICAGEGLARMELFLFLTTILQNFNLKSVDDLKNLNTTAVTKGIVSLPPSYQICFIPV

A549 [1] = assay: Induction of cell cycle arrest in human A549 cells assessed as M stage arrest by measuring upregulation of p-histone H3 (Ser10) expression at 0.3 uM incubated for 24 hrs by Western blot analysis; type: functional, cell-based
[2] = Volume of distribution at steady state in Sprague-Dawley rat at 2 mg/kg, iv measured after 1 hrs by LC-MS/MS analysis; type: ADME, organism-based; conditions: in vivo, read-out: Vdss
[3] = AUC (0 to t) in Sprague-Dawley rat at 2 mg/kg, iv measured after 1 hrs by LC-MS/MS analysis; type: ADME, organism-based; parameters: route intravenous, time 1 hrs, dose 2 mg/kg; conditions: in vivo
A549 [4] = assay: Antitumor activity against human A549 cells xenografted in BALB/c mouse assessed as tumor growth inhibition at 25 mg/kg, po treated daily relative to control; conditions: read-out: TGI
[5] = Half life in Sprague-Dawley rat at 2 mg/kg, iv measured after 1 hrs by LC-MS/MS analysis; type: ADME, organism-based; conditions: in vivo
CYP2C8 = biological target: T2, CYP2C8 (Homo sapiens, UniProt P10632); assay: Inhibition of CYP2C8 in human liver microsomes using amodiaquine as substrate at 50 uM by LC-MS/MS analysis; type: ADME; conditions: probe amodiaquine
T2 sequence (P10632 whole entry): T1 sequence (P10632 whole entry)

[6] = Apparent permeability across apical to basolateral in human Caco2 cells by LC-MS/MS analysis; type: ADME, cell-based; conditions: Caco-2, read-out: permeability

## CCN(C(=O)c1cc(C(C)C)c(O)cc1O)c1cccnc1
Cytochrome P450 2C8
  IC50: > 50 µM
A549 [1]
  Activity: Active
[2]
  Vd: 4.59 L/kg
[3]
  AUCt: 487 ng·h/mL
A549 [4]
  inhibition in vivo at 25 mg/kg: 46.7%
[5]
  half-life: 2.9 h
CYP2C8
  inhibition at 50 µM: 54.3%
[6]
  Papp A→B: 31.9 ×10⁻⁶ cm/s
